PMC7466159, “Anti-Metastasis Fascin Inhibitors Decrease the Growth of Specific Subtypes of Cancers” (Cancers, 2020)

Experiments:
[1] = system: MDA-MB-231 human triple-negative breast cancer cells; assay: Overall survival of MDA-MB-231 tumor-bearing mice; format: in vivo
Experimental: The numbers of metastatic MDA-MB-231 cells in lungs were determined by a clonogenic assay. The lungs were removed from each mouse once sacrificed, and the resulting cells were suspended and plated with a series of dilutions in 10-cm tissue culture dishes in medium containing 2.0 µg/mL puromycin for clonogenic growth. As these MBA-MB-231 tumor cells were stably transfected with the vector pSuper-puro, the metastasized tumor cells formed foci after 14 days, at which time they were fixed with 4% paraformaldehyde and stained with crystal violet staining solution for counting. For combination treatments with chemotherapy, MDA-MB-231 tumor cells (1 × 10^5) suspended in PBS-matrigel (v/v, 1:1) were injected subcutaneously into the abdominal mammary gland area of mice on Day 0. Starting on Day 0, 7, or 14, NP-G2-044 was given to mice once a day for 6 days every week by oral gavage at 300 mg/kg per mouse. A vehicle solvent was given to the control mice once a day for 6 days every week. Starting on day 14, doxorubicin hydrochloride (MilliporeSigma, St. Louis, MO, USA) (2 mg/kg) and cyclophosphamide monohydrate (MilliporeSigma) (60 mg/kg) were given to mice once a week for four weeks. Primary tumors were removed on day 28. The death of the mice was used as the endpoint.

[2] = system: 4T1 breast tumor cells; assay: 4T1 metastatic recurrence after chemotherapy and surgical removal of primary tumor; format: in vivo, mice; conditions: 100 mg/kg once daily by gavage starting on Day 3, with paclitaxel and surgery; compared to chemotherapy alone, p < 0.05; Day 32
Experimental: Female BALB/c mice (6- to 8-week old) were purchased from Charles River Labs. The 4T1 tumor cells (1 × 10^5) were injected subcutaneously into the abdominal mammary gland area of mice using 0.1 mL of a single-cell suspension in PBS-matrigel (v/v, 1:1) on Day 0 as previously described. […] On Day 28, the mice were sacrificed. […] The numbers of metastatic 4T1 cells in lungs were determined by a clonogenic assay. In brief, the lungs were removed from each mouse, finely minced and digested in 5 mL of an enzyme cocktail containing 1 × PBS and 1 mg/mL collagenase type IV for 2 h at 37 ℃ on a platform rocker. After incubation, samples were filtered through 70-µm nylon cell strainers and washed twice with PBS. The resulting cells were suspended and plated with a series of dilutions in 10-cm tissue culture dishes in DMEM medium containing 60 µM thioguanine for clonogenic growth. As 4T1 tumor cells are resistant to 6-thioguanine, the metastasized tumor cells formed foci after 14 days, at which time they were fixed with 4% paraformaldehyde and stained with crystal violet staining solution for counting. For the experiments in Figure 2F,G, 4T1 tumor cells (1 × 10^5) suspended in PBS-matrigel (v/v, 1:1) were injected subcutaneously into the abdominal mammary gland area of mice on day 0. Starting on Day 3, NP-G2-044 was given to mice once every day by oral gavage at 100 mg kg^−1 per mouse. […]

[3] = system: HT cells; assay: Soft-agar colony formation assay, HT; format: cell-based; conditions: 14 days, dosage-dependent
Experimental: A total of 1 × or 2 ×10^4 cells were suspended in 0.5 mL of 0.3% low melting point agar (Merck KGaA, Darmstadt, Germany) in RPMI-1640 or DMEM containing 10% FBS and control solvent or the inhibitors. This suspension was overlaid on pre-solidified with 0.6% agar in the same medium in 24-well plates as previously described. Normal growth medium containing control solvent or the inhibitors was gently layered over the cultures every 4 days for 14 days. The colonies were stained with 0.1% crystal violet for 1 h at room temperature and counted under a microscope.

[4] = system: MDA-MB-468 tumor cells; assay: MDA-MB-468 breast cancer model in NSG mice (tumor growth, overall survival); format: in vivo; conditions: treatment from Day 14, compared with the control group
Experimental: (§1) MDA-MB-468 cells and HCC38 cells grew in the presence of EGF with or without NP-G2-044. […] Finally, we used the animal model to investigate whether the primary tumor growth of MDA-MB-468 cells was sensitive to fascin inhibitors. MDA-MB-468 tumor cells were implanted into the mammary gland of NSG mice, and these mice were randomly divided into four groups. One group of mice was used as control (Figure 6I). The second group of mice was treated with the fascin inhibitor NP-G2-044 (Figure 6I). The third group was treated with the EGFR inhibitor gefitnib (Figure 6I), and the fourth group was treated with the combination of NP-G2-044 + gefitinib (Figure 6I). […] We dissected the primary tumor tissues 55 days after the tumor implantation from some mice. […] Furthermore, the overall survival of the mice was analyzed (Figure 6K).
For the breast cancer model, MDA-MB-468 cells (5 × 10^6) suspended in PBS-matrigel (v/v, 1:1) were injected subcutaneously into the abdominal mammary gland area of female NSG mice on Day 0 as previously described. Starting on Day 14, NP-G2-044 was given once a day for 5 days every week by gavage at 300 mg kg^−1 per mouse until their death. Starting on Day 14, gefitinib was given twice weekly by gavage at 150 mg kg^−1 per mouse until their death. The control solvent was given once a day for 5 days every week by gavage according to their body weight until their death. […] The primary tumor volume was calculated as length × width^2 ×π/6.

[5] = system: Ly1 lymphoma cells; assay: Cell growth sensitivity, Ly1; format: cell-based
[6] = system: Ly10 cells; assay: Cell growth assay, Ly10; conditions: Ly10 cells in culture, 4 days
Experimental: (§3) We then extended our search to other types of lymphoma cells. […] Both U2932 and Ly10 cells are ABC-subtype DLBCLs, and HT cells are diffuse mixed lymphoma.
(§4) For NP-G2-044 dose-dependent studies, 1 × 10^5 Ly10, U2932, or HT cells were seeded in a 12- or 24-well plate on day 0. A total of 1, 3, 10, 30, or 100 μM NP-G2-044 or control solvent was added to the plates. Cells were collected and counted on day 4. For time-dependent studies, 1 × 10^5 Ly10, U2932, or HT cells were seeded in a 12- or 24-well plate on day 0. A total of 30 μM NP-G2-044, 5 μM LY2409881, 30 μM NP-G2-044 plus 5 μM LY2409881, or control solvent was added to the plates. Cells were collected and counted on Days 2 and 4. […] The cell growth index was expressed as the fold changes of cell numbers over the starting cell number. For these assays, the old medium was changed with a fresh medium containing the control solvent or the inhibitors every two days.

[7] = system: NF-κB nuclear translocation in HT cells; assay: p65 (NF-κB) nuclear translocation, Western blotting, HT; format: cell-based; conditions: 30 µM, 16 h
[8] = system: phosphorylation of ERK, PLCγ1, and PI3K in HCC38 cells; assay: EGFR signaling pathway Western blotting, HCC38; format: cell-based; conditions: 10 ng/mL EGF, 30 µM, 24 h
Experimental: as §1
(§2) For the cell signal pathway analysis of breast cancer cells, HCC38 and MDA-MB-468 cells were plated in a 10-cm dish. After culture for 24 h, cells were incubated in serum-free medium for 16 h.

[9] = system: U2932 cells; assay: Cell growth assay, U2932; conditions: U2932 cells in culture, 4 days
Experimental: as §3, §4

[10] = system: 4T1 triple-negative breast cancer cells; design: method as in PMID 26081695, PMID 27071719; conditions: 4T1 cells; cited from earlier work
[11] = system: phosphorylation of ERK, PLCγ1, and PI3K in MDA-MB-468 cells; assay: EGFR signaling pathway Western blotting, MDA-MB-468; format: cell-based; conditions: 10 ng/mL EGF, 30 µM, 24 h
Experimental: as §1, §2

Cc1occc1C(=O)Nc1nn(Cc2ccc(C(F)(F)F)cc2)c2ccccc12 [NP-G2-044]
increase of median overall survival ([1]; NSG mice, compared with the control group, primary tumors removed on day 28): ~ 29% | overall survival by start of treatment ([1]; combination with chemotherapy, NP-G2-044 starting on Day 0 and Day 7 versus Day 14): longer overall survival | metastatic recurrence of breast tumors in the lung [2]: slowed the metastatic recurrence | number of growing colonies [3]: decreased the number of growing colonies | growth of primary tumors [4]: reduced the growth of primary tumors to the same degree | increase of median overall survival [4]: ~ 50% | growth sensitivity [5]: insensitive | effect on cell growth [6]: inhibitory effect | nuclear translocation of the p65 subunits [7]: also observed | phosphorylation of ERK, PLCγ1, and PI3K [8]: affected | effect on cell growth [9]: inhibitory effect | induction of apoptosis [10]: did not induce the apoptosis | phosphorylation of ERK, PLCγ1, and PI3K [11]: affected
